Test results published in patent US9145424B2, “Treatment of amyotrophic lateral sclerosis” (Northwestern University, priority 2008, dated 2015).
Like-named read-outs stand apart in the source and are kept apart here.

Legend:
[1] = system: proteasome activity (Ubi-YFP degradation); assay: Proteasome activity assay (Ubi-YFP in HeLa cells); format: cell-based; settings: 25 μM compound, 1 μM MG132
Experimental: FIG. 7. Arylsulfanyl pyrazolones prevent MG132-induced accumulation of Ubi-YFP. HeLa cells were co-transfected with Ubi-YFP and CMV-CFP plasmids, treated with 1 μM MG132 and 25 μM arylsulfanyl pyrazolones and Ubi-YFP fluorescence intensity normalized to CFP.
Since the CMB-003299 cytotoxicity of SOD1 protein aggregates may involve inhibition of proteasome activity, compounds that stimulate proteasome activity could reverse or prevent mutant SOD1-induced cytotoxicity. Thus, active compounds were tested for the ability to stimulate proteasome activity using a cell line expressing ubiquitin-conjugated YFP [Ubi-YFP 74]. In these cells, increased proteasome activity causes increased degradation of Ubi-YFP and decreased YFP fluorescence. Conversely, compounds that inhibit proteasome activity increase accumulation of Ubi-YFP and enhanced YFP fluorescence. As expected, MG132 augments YFP fluorescence intensity ˜3-fold compared to untreated controls (FIG. 7). […] Protein aggregates are present in the absence of MG132 and aggregation is suppressed following treatment with a provided compound.
HeLa cells (20,000/chamber) were plated on 8 chambered Tissue-tek coverglass pretreated with 1 mg/ml poly-D-lysine and allowed to adhere for 18 h at 37° C./5% CO2. Cells were transfected with 0.2 μg each CMV-CFP and Ubi-YFP plasmids using Lipofectamine 2000 according to manufacturer's instructions. Cells were allowed to express CFP and Ubi-YFP for 18 h followed by a 6 h incubation with test compounds (25 μM). MG132 (1 μM) was added for a final 18 h incubation and Ubi-YFP degradation assessed by fluorescence microscopy. Fluorescence intensity of CFP and YFP was calculated on a cell-by-cell basis from captured images using AxioVision software (Zeiss). YFP fluorescence was normalized to CFP fluorescence.

[2] = system: PC12 cells that express mutant G93A SOD1; assay: Mutant SOD1-induced cytotoxicity protection assay; settings: for Corresponding % viability: rat, 48 h
Experimental: This idea was tested by examining the sensitivity of PC12 cells to SOD1 aggregates in the presence and absence of proteasome inhibitor MG132. PC12 cells expressing no SOD1, wild type SOD1, G85R SOD1 or G93A SOD1 were grown with or without MG132 (FIG. 1).
PC12 cells expressing G93A SOD1 were treated with 100 nM MG132 with or without co-treatment with geldanamycin or radicicol.

Aqueous solubility = format: physicochemical; settings: no precipitation at the highest concentration
Experimental: Solubility: Because compounds are stored in DMSO, it is necessary to determine aqueous solubility of initial hit compounds and their analogs. High solubility in aqueous solution is necessary for high GI absorption, bioavailability, and for chemical formulation. Compounds should be soluble in aqueous solution at >10 μg/ml. Solubility of >50 μg/ml is preferred.

[3] = In vitro microsomal stability, mouse; format: in vitro ADME; settings: Mouse; for microsomal CLint: mouse, liver microsomes, read-out: CLint (microsomal intrinsic clearance)
Experimental: (§1) Metabolism (microsome, S9 fraction, CYP450): Liver Cytochrome P450 (CYP450) enzymes are the major route for xenobiotic metabolism and microsomal and hepatocyte stability is the best predictor of pharmacokinetic half-life. Cross-species comparisons of metabolism in liver microsomes can predict potential issues with liver toxicity in humans. Selected active compounds are tested in liver microsomes from efficacy species (mouse), toxicity species (rat, dog, monkey), and humans for metabolic stability.
(§2) CMB-087229 was sent for an evaluation of its in vitro ADME properties.
(§3) Two possible amines, secondary and tertiary AAP analogues, were initially screened in the protection assay (FIG. 30) and for in vitro microsomal stability (Table 1) and Caco-2 permeability (Table 2). […] The solubilities of 2 and 3 were good in aqueous media (≧150 μM), and no precipitation occurred at the highest concentration. The in vitro plasma half-life for both compounds was >60 min.

Caco-2 = assay: In vitro Caco-2 permeability; format: in vitro ADME
Experimental: General Permeability: High membrane permeability is required for effective GI absorption and optimal bioavailability. Passive permeability is typically assessed in the PAMPA artificial membrane assay (Kansy et al., J. Med. Chem. 2002, 45(8), 1712-1722). Cell-based permeability determinations using the Caco-2 cell assay are more resource intensive but more predictive of active transport or efflux in vivo (Artursson et al., Adv. Drug. Deliv. Rev. 2001, 46(1-3), 27-43). Caco-2 assays are performed as needed during SAR development.

[4] = In vitro microsomal stability, human; format: in vitro ADME; settings: Human
Experimental: as §1, §2, §3

[5] = In vitro plasma stability; format: in vitro ADME
Experimental: Plasma stability: Plasma stability of active compounds is assessed in efficacy species (mouse), toxicity species (rat, dog, monkey), and human cells.

cortical neurons = assay: Cortical neuron assay; format: cell-based
Experimental: Selected compounds were tested with cortical neurons—a useful preliminary step prior to the expensive and time-consuming ALS mouse model studies. Although long linker compound 24 and cyclic linker compound 27 are active in the PC12 assay, they are not active with cortical neurons. Compound 3 gave better results than the ether counterpart (1), recovering 100% neuronal activity at 10 μM concentration.

[6] = format: in vitro ADME; settings: male, Sprague Dawley, rat, pH 7.4
[7] = system: PC12 cells expressing G93A SOD1; assay: Sensitivity of PC12 cells to proteasome inhibitor, calcein-AM viability; format: cell-based; settings: compared with MG132
Experimental: FIGS. 1A-C. […] Cell survival was determined using the viability stain calcein-AM.

[8] = Rattus norvegicus, PC-12, read-out: Best EC50, PC12 G93A SOD1 cells, MG132, calcein-AM viability
[9] = Rattus norvegicus, PC-12, read-out: EC50 after Normalization, normalised with the corresponding 3299 EC50

For Cc1cc(SCc2cc(=O)[nH][nH]2)c(C)cc1Cl [CMB-003299], which “effect on MG132-induced Ubi-YFP fluorescence” value [1] is on record?
Its value is “strongly inhibit”.

And the EC50 [2, 8]?
Its EC50 is 0.4 µM.

With O=c1cc(COc2cccc(-c3ccccc3)c2)[nH][nH]1 [CMB-087643-1] as the molecule, how does the EC50 [2, 8] read?
Its EC50 is 8.53 µM.

And the EC50 [2, 9]?
Its EC50 is 2.84 µM.

And the Corresponding % viability [2]?
The Corresponding % viability was 96%.

For O=c1cc(COc2cc(-c3ccccc3)cc(-c3ccccc3)c2)[nH][nH]1 [CMB-087644-1], which EC50 [2, 8] is on record?
Its EC50 is 11.1 µM.

What about the EC50 [2, 9] of the same molecule?
The EC50 was 3.7 µM.

What about the Corresponding % viability [2] of the same molecule?
Its Corresponding % viability is 68%.

For O=c1cc(CN(c2cc(Cl)cc(Cl)c2)S(=O)(=O)c2ccccc2)[nH][nH]1 [CMB-087645-1], which EC50 [2, 8] is on record?
Its EC50 is 9.04 µM.

What about the EC50 [2, 9] of the same molecule?
Its EC50 is 1.43 µM.

What about the Corresponding % viability [2] of the same molecule?
Its Corresponding % viability is 111%.

For O=c1cc(CNc2cc(Cl)cc(Cl)c2)[nH][nH]1 [CMB-087650-1], which EC50 [2, 8] is on record?
Its EC50 is 2.11 µM.

And the EC50 [2, 9]?
Its EC50 is 0.33 µM.

And the Corresponding % viability [2]?
Its Corresponding % viability is 128%.

With O=c1cc(CNc2cc(Cl)cc(Cl)c2)[nH][nH]1 [Compound 2, 5-((3,5-Dichlorophenylamino)methyl)-1H-pyrazol-3(2H)-one, reference compound] as the molecule, how does the “solubility in aqueous media” value (Aqueous solubility) read?
Its value is ≥ 150 µM.

What about the T1/2 ([3]; NADPH-absent) of the same molecule?
The T1/2 was 1.67 h.

And the T1/2 ([3]; NADPH-dependent)?
The T1/2 was 0.5 h.

What about the microsomal CLint ([3]; NADPH-absent) of the same molecule?
Its microsomal CLint is 23 µL/min/mg.

And the microsomal CLint ([3]; NADPH-dependent)?
Its microsomal CLint is 78 µL/min/mg.

What about the “Efflux ratio (B→A)/(A→B)” value (Caco-2) of the same molecule?
Its value is 47.1.

And the “Papp (A→B)” value (Caco-2)?
Its value is 0.6 10^−6 cm/s.

What about the “Papp (B→A)” value (Caco-2) of the same molecule?
Its value is 28.1 10^−6 cm/s.

And the T1/2 ([4]; NADPH-absent)?
Its T1/2 is >3 h.

And the T1/2 ([4]; NADPH-dependent)?
Its T1/2 is 1.58 h.

And the microsomal CLint ([4]; liver microsomes, NADPH-dependent, read-out: CLint (microsomal intrinsic clearance))?
Its microsomal CLint is 24 µL/min/mg.

And the “in vitro plasma half-life” value [5]?
The value was > 1 h.

With CN(CCCc1cc(=O)[nH][nH]1)c1cc(Cl)cc(Cl)c1 [Compound 24, 5-(3-((3,5-Dichlorophenyl)(methyl)amino)propyl)-1H-pyrazol-3(2H)-one] as the molecule, how does the “activity with cortical neurons, in words” value (cortical neurons) read?
The value was “not active”.

What about the “activity in the cytotoxicity protection assay, in words” value [2] of the same molecule?
The value was “active”.

For O=c1[nH][nH]c2c1CN(c1cc(Cl)cc(Cl)c1)CC2 [Compound 27, 5-(3,5-Dichlorophenyl)-4,5,6,7-tetrahydro-1H-pyrazolo[4,3-c]pyridin-3(2H)-one], which “activity with cortical neurons, in words” value (cortical neurons) is on record?
The value was “not active”.

And the “activity in the cytotoxicity protection assay, in words” value [2]?
Its value is “active”.

Which “activity in the cytotoxicity protection assay, in words” value [2] does the source give for CN(Cc1cc(=O)n(Cc2ccccc2)[nH]1)c1cc(Cl)cc(Cl)c1 [Compound 29, 2-Benzyl-5-(((3,5-dichlorophenyl)(methyl)amino)methyl)-1H-pyrazol-3(2H)-one] here?
The value was “comparable in activity to parent compound 3”.

For CN(Cc1cc(=O)n(C)[nH]1)c1cc(Cl)cc(Cl)c1 [Compound 30, 5-(((3,5-Dichlorophenyl)(methyl)amino)methyl)-2-methyl-1H-pyrazol-3(2H)-one], which “activity in the cytotoxicity protection assay, in words” value [2] is on record?
Its value is “comparable in activity to parent compound 3”.

With CN(Cc1cc(=O)[nH]n1C)c1cc(Cl)cc(Cl)c1 [Compound 31, 5-(((3,5-Dichlorophenyl)(methyl)amino)methyl)-1-methyl-1H-pyrazol-3(2H)-one] as the molecule, how does the “activity in the cytotoxicity protection assay, in words” value [2] read?
The value was “devoid of activity”.

For Cc1c(CN(C)c2cc(Cl)cc(Cl)c2)n(C)n(C)c1=O [Compound 32, 5-(((3,5-Dichlorophenyl)(methyl)amino)methyl)-1,2,4-trimethyl-1H-pyrazol-3(2H)-one], which “activity in the cytotoxicity protection assay, in words” value [2] is on record?
Its value is “devoid of activity”.

Which “activity in the cytotoxicity protection assay, in words” value [2] does the source give for CN(Cc1cc(=O)n(C)n1C)c1cc(Cl)cc(Cl)c1 [Compound 33, 5-(((3,5-Dichlorophenyl)(methyl)amino)methyl)-1,2-dimethyl-1H-pyrazol-3(2H)-one] here?
The value was “devoid of activity”.

Which “activity in the cytotoxicity protection assay, in words” value [2] does the source give for CN1N=C(CN(C)c2cc(Cl)cc(Cl)c2)C(C)(C)C1=O [Compound 34, 3-(((3,5-Dichlorophenyl)(methyl)amino)methyl)-1,4,4-trimethyl-1H-pyrazol-5(4H)-one] here?
Its value is “devoid of activity”.

With Cc1cc(-c2ccccc2)nnc1NCCN1CCOCC1 [Mina, Minaprine, reference compound] as the molecule, how does the “% Mean ± S.E.” value ([6]; 0 min, 5 μM) read?
Its value is 100 ± 11.5%.

What about the “RR Mean (Response Ratio)” value ([6]; 0 min, 5 μM) of the same molecule?
The value was 0.711.

And the “% Mean ± S.E.” value ([6]; 0 min, 15 μM)?
Its value is 100 ± 7.11%.

What about the “RR Mean (Response Ratio)” value ([6]; 0 min, 15 μM) of the same molecule?
The value was 22.88.

What about the “% Mean ± S.E.” value ([6]; 20 min, 15 μM) of the same molecule?
The value was 59.2 ± 14.9%.

What about the “RR Mean (Response Ratio)” value ([6]; 20 min, 15 μM) of the same molecule?
Its value is 13.54.

What about the “% Mean ± S.E.” value ([6]; 40 min, 5 μM) of the same molecule?
Its value is 45.2 ± 8.1^ %.

And the “RR Mean (Response Ratio)” value ([6]; 40 min, 5 μM)?
Its value is 0.321.

For O=c1cc(CS(=O)(=O)c2ccc(Cl)cc2)[nH][nH]1 [TC-II-70], which “% Mean ± S.E.” value ([6]; 0 min, 15 μM) is on record?
Its value is 100 ± 12.6%.

What about the “RR Mean (Response Ratio)” value ([6]; 0 min, 15 μM) of the same molecule?
The value was 0.237.

And the “% Mean ± S.E.” value ([6]; 20 min, 15 μM)?
The value was 109 ± 13.3%.

And the “RR Mean (Response Ratio)” value ([6]; 20 min, 15 μM)?
Its value is 0.261.

And the “% Mean ± S.E.” value ([6]; 40 min, 15 μM)?
Its value is 84.8 ± 21.8%.

What about the “RR Mean (Response Ratio)” value ([6]; 40 min, 15 μM) of the same molecule?
The value was 0.201.

Which EC50 [2, 8] does the source give for O=c1cc(CSCc2ccc(Cl)cc2)[nH][nH]1 [TC-II-123] here?
Its EC50 is 4.2 µM.

For O=c1cc(CSCCOc2ccccc2)[nH][nH]1 [TC-II-140], which EC50 ([2]; read-out: Best EC50, PC12 G93A SOD1 cells, MG132, calcein-AM viability) is on record?
Its EC50 is 6.2 µM.

For CC(=O)CC(c1ccccc1)c1c(O)c2ccccc2oc1=O (stereo not shown) [War, warfarin, reference compound], which “% Mean ± S.E.” value ([6]; 0 min, 15 μM) is on record?
Its value is 100 ± 7.75%.

And the “% Mean ± S.E.” value ([6]; 60 min, 15 μM)?
Its value is 96.1 ± 7.66%.

For CC(C)C[C@H](NC(=O)[C@H](Cc1ccccc1)NC(=O)c1cnccn1)B(O)O [bortezomib], which “sensitivity to proteasome inhibition, in words” value [7] is on record?
Its value is “Qualitatively similar results”.
